Laboratory results: publication PMC7451048 (Drug metabolism letters, 2019)

What was measured:
[1] = biological target: P-gp (Homo sapiens, UniProt P08183); assay: Plasma membrane vesicle transport assay, P-gp vesicles; type: in vitro ADME; conditions: for Difference in P-gp vesicle uptake between ATP and AMP: 10 μM, 1 min (Fig. 9)
[2] = biological target: T1, OATP1B1 (Homo sapiens, UniProt Q9Y6L6); conditions: 3 min; for Inhibition of cellular uptake by RIF, OATP1B1-overexpressing cells: 20 μM RIF, BUP 5 μM, OHB 10 μM, TB 20 μM, EB 30 μM; for Apparent Vmax: net cellular uptake, CHO/OATP1B1-overexpressing cells, mean ± SD
T1 sequence (Q9Y6L6 1-691): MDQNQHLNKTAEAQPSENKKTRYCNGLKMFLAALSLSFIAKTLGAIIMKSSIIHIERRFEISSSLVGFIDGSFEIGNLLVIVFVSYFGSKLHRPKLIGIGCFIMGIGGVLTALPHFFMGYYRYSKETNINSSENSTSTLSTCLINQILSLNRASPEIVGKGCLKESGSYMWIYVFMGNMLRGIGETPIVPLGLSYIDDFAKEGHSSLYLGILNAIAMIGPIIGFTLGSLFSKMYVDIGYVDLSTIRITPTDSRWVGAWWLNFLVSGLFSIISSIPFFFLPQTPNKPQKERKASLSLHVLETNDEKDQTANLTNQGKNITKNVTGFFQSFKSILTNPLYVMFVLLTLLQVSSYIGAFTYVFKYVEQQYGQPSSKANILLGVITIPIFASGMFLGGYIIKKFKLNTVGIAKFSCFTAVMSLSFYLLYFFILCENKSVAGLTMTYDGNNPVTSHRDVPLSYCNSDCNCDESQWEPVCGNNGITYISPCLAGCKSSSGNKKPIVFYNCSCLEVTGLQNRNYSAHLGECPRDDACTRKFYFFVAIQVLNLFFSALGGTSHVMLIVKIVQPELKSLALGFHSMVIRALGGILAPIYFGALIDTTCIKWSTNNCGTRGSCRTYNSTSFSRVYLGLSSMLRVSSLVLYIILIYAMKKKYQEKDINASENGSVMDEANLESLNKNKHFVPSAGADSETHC

[3] = biological target: T2, OATP2B1 (Homo sapiens, UniProt O94956); conditions: 3 min; for Inhibition of cellular uptake by RIF, OATP2B1-overexpressing cells: 20 μM RIF, BUP 5 μM, OHB 30 μM, TB 20 μM, EB 100 μM; for Apparent Vmax / Km: net cellular uptake, HEK/OATP2B1-overexpressing cells, mean ± SD; for Km: read-out: Apparent Km
T2 sequence (O94956 1-709): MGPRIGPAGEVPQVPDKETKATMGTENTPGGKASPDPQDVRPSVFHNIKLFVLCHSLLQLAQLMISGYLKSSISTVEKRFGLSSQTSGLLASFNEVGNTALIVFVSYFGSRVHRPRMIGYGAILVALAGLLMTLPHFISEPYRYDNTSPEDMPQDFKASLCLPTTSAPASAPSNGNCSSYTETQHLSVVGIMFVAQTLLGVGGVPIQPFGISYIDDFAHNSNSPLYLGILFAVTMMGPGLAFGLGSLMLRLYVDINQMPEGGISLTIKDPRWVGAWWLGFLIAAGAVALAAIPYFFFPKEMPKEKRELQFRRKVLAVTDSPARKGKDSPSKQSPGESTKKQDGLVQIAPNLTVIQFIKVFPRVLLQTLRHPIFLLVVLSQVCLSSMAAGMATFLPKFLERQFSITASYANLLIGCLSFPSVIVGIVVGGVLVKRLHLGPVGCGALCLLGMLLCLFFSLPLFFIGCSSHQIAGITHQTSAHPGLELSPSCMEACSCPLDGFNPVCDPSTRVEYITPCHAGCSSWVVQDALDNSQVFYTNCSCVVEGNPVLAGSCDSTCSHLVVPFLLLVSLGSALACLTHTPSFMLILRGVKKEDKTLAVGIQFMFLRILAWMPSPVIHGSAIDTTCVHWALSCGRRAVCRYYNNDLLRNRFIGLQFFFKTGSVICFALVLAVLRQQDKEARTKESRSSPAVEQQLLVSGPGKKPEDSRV

[4] = ref [14], [15]; cited from earlier work
[5] = biological target: T3, OATP4A1 (Homo sapiens, UniProt Q96BD0); assay: Cellular uptake assay, HEK/OATP4A1 vs HEK empty vector cells
T3 sequence (Q96BD0 1-722): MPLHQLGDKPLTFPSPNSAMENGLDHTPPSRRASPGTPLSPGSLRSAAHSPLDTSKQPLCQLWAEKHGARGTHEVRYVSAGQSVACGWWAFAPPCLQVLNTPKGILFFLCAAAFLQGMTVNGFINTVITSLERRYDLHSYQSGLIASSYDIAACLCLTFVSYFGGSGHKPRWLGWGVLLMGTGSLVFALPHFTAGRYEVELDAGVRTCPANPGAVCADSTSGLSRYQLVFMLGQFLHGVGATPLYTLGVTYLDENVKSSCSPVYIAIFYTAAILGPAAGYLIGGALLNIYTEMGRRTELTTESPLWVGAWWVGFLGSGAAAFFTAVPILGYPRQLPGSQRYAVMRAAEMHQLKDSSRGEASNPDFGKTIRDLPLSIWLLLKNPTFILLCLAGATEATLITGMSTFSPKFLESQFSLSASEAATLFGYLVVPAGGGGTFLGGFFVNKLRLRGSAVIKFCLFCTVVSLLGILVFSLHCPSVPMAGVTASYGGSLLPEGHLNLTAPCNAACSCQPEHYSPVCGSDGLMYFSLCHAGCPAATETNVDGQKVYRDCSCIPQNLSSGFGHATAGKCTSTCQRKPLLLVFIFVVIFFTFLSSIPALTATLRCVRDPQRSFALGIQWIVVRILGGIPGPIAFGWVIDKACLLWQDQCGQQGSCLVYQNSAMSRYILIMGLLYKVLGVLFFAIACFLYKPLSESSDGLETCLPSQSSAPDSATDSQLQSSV

[6] = biological target: MRP2 (Homo sapiens, UniProt Q92887); assay: Plasma membrane vesicle transport assay, MRP2 vesicles; conditions: for Difference in MRP2 vesicle uptake between ATP and AMP: 10 μM, 1 min (Fig. 9)
Chain of MRP2 (Q92887 whole entry): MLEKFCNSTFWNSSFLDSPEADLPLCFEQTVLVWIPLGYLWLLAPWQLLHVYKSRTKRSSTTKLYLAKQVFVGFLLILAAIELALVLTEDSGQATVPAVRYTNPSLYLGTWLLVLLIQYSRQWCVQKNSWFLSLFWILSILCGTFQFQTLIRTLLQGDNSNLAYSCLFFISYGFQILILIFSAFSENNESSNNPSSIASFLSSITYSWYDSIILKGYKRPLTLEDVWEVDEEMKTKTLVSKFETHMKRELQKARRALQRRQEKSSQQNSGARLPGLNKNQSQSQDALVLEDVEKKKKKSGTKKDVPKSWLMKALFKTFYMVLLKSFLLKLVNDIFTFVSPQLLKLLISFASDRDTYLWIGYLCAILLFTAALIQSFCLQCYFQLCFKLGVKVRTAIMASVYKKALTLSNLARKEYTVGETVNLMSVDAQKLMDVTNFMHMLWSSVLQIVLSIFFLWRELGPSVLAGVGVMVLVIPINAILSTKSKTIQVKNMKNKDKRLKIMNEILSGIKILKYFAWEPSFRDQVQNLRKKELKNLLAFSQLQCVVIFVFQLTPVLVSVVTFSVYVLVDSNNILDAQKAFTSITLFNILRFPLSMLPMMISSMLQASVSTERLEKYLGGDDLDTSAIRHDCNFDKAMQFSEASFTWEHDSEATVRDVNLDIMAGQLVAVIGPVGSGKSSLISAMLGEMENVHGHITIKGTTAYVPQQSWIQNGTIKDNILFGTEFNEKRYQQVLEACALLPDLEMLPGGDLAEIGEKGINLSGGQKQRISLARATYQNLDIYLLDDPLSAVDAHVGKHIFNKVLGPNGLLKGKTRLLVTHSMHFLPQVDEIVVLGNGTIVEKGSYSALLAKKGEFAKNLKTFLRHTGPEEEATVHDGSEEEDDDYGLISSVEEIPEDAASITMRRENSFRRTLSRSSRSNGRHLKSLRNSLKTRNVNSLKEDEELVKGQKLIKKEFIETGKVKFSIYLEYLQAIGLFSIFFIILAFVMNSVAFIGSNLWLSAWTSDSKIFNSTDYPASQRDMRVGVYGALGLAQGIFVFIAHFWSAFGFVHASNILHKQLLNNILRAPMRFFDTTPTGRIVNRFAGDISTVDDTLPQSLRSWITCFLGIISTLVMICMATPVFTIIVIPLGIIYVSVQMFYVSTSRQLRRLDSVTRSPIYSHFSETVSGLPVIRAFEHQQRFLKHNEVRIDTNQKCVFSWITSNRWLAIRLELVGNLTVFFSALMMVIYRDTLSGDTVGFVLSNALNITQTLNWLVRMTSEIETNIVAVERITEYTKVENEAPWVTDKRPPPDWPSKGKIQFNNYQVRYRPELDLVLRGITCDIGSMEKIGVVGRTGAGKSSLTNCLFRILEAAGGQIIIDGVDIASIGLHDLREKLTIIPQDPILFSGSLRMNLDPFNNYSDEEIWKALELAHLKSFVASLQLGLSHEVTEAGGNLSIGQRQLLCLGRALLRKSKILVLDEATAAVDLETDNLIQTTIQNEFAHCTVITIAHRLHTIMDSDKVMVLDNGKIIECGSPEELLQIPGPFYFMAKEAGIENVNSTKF

Chain of P-gp (P08183 whole entry): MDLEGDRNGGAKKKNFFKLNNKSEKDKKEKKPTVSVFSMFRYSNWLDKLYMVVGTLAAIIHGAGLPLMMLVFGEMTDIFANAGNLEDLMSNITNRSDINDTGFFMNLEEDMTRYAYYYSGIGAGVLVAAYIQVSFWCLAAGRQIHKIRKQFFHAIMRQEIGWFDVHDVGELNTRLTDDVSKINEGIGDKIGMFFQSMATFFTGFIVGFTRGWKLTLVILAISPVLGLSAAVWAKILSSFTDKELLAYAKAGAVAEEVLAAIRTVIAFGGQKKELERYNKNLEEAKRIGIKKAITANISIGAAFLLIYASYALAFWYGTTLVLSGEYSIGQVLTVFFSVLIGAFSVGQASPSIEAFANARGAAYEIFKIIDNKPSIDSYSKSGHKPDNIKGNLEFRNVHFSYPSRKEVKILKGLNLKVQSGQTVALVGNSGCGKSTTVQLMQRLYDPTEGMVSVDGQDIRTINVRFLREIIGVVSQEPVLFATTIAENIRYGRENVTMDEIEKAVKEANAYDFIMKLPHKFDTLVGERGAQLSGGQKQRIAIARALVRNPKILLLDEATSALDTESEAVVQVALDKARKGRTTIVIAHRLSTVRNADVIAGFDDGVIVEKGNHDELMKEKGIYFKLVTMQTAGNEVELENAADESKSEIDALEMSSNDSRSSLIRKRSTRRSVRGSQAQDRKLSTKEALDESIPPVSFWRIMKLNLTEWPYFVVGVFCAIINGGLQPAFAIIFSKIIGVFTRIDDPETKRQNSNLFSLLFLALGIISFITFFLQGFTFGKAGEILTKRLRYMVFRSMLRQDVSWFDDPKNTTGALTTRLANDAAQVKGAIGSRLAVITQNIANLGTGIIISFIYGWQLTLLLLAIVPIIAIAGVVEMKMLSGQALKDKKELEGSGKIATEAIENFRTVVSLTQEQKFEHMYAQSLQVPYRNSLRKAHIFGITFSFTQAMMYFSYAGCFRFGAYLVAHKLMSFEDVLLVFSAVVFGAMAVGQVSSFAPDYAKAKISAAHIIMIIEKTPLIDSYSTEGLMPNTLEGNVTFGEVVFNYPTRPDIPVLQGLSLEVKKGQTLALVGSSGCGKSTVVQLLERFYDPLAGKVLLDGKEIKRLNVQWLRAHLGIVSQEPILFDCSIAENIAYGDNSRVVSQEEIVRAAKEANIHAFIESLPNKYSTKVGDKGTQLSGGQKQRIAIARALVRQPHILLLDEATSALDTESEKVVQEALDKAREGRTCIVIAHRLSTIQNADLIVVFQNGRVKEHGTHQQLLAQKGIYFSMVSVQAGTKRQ

Row | SMILES | Substrate of P-gp (conclusion) [1] | Difference in P-gp vesicle uptake between ATP and AMP [1] | Inhibition of cellular uptake by RIF, OATP1B1-overexpressing cells [2] | Apparent Vmax [2] [pmol/mg protein/min] | Inhibition of cellular uptake by RIF, OATP2B1-overexpressing cells [3] | Apparent Vmax [3] [pmol/mg protein/min] | Km [3] [µM] | Pharmacological activity relative to BUP [4] | Substrate of OATP4A1 (conclusion) [5] | Substrate of MRP2 (conclusion) [6] | Difference in MRP2 vesicle uptake between ATP and AMP [6]
1 | CC(NC(C)(C)C)C(O)c1cccc(Cl)c1 (stereo not drawn) [EB, Erythrohydrobupropion] | not substrates | No significant differences | no statistically significant differences | 1806±133 | no statistically significant differences | 1752±192 | 192 ± 35 | 20% | not substrates | not substrates | No significant differences
2 | C[C@H]1NC(C)(C)CO[C@]1(O)c1cccc(Cl)c1 [OHB, Hydroxybupropion] | not substrates | No significant differences | no statistically significant differences | 1423 ± 49 | no statistically significant differences | 1641±98 | 74 ± 12 | 50–100% | not substrates | not substrates | No significant differences
3 | C[C@H](NC(C)(C)C)[C@@H](O)c1cccc(Cl)c1 [TB, Threohydrobupropion] | not substrates | No significant differences | no statistically significant differences | 1351±55 | no statistically significant differences | 1368±72 | 53 ± 9 | 20% | not substrates | not substrates | No significant differences
